{
  "source": "PubChem BioAssay (NCI)",
  "assay_in_all_cases": "NCI-60 cell line screen, 48 h",
  "key": {"[1]": {"test_system": "UACC-62 melanoma"}, "[2]": {"test_system": "U251 CNS"}, "[3]": {"test_system": "COLO 205 colon"}, "[4]": {"test_system": "SN12C renal"}, "[5]": {"test_system": "SK-OV-3 ovarian"}, "[6]": {"test_system": "NCI-H226 lung"}, "[7]": {"test_system": "HL-60(TB) leukemia"}, "[8]": {"test_system": "RPMI-8226 leukemia"}, "[9]": {"test_system": "SF-268 CNS"}, "[10]": {"test_system": "SK-MEL-2 melanoma"}, "[11]": {"test_system": "A498 renal"}, "[12]": {"test_system": "MALME-3M melanoma"}, "[13]": {"test_system": "RXF 393 renal"}, "[14]": {"test_system": "BT-549 breast"}, "[15]": {"test_system": "UACC-257 melanoma"}, "[16]": {"test_system": "M14 melanoma"}, "[17]": {"test_system": "MOLT-4 leukemia"}, "[18]": {"test_system": "SF-295 CNS"}, "[19]": {"test_system": "MDA-MB-231 breast"}, "[20]": {"test_system": "HT29 colon"}, "[21]": {"test_system": "NCI-H460 lung"}, "[22]": {"test_system": "OVCAR-8 ovarian"}, "[23]": {"test_system": "EKVX NSCLC"}, "[24]": {"test_system": "SK-MEL-28 melanoma"}, "[25]": {"test_system": "KM12 colon"}, "[26]": {"test_system": "SR leukemia"}, "[27]": {"test_system": "NCI-H522 lung"}},
  "note": "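Five concentrations, 48 hours, 96-well plates. GI50 is the concentration that inhibits growth by half. The concentration for full growth arrest is given as TGI.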",
  "data": [
    {"compound": "Cn1c(/C=C/[N+](=O)[O-])cc2ccccc21", "values": [
      {"measurement": "GI50", "setting": "[1]", "result": 11.4, "unit": "µM"},
      {"measurement": "TGI", "setting": "[1]", "result": 31, "unit": "µM"},
      {"measurement": "GI50", "setting": "[2]", "result": 1730, "unit": "nM"},
      {"measurement": "TGI", "setting": "[2]", "result": 3.75, "unit": "µM"},
      {"measurement": "GI50", "setting": "[3]", "result": 1880, "unit": "nM"},
      {"measurement": "TGI", "setting": "[3]", "result": 3.69, "unit": "µM"},
      {"measurement": "GI50", "setting": "[4]", "result": 13.1, "unit": "µM"},
      {"measurement": "TGI", "setting": "[4]", "result": "> 100", "unit": "µM"},
      {"measurement": "GI50", "setting": "[5]", "result": 13.2, "unit": "µM"},
      {"measurement": "TGI", "setting": "[5]", "result": 26.3, "unit": "µM"},
      {"measurement": "GI50", "setting": "[6]", "result": 4.23, "unit": "µM"},
      {"measurement": "TGI", "setting": "[6]", "result": 21, "unit": "µM"},
      {"measurement": "GI50", "setting": "[7]", "result": 13.1, "unit": "µM"},
      {"measurement": "TGI", "setting": "[7]", "result": 57.5, "unit": "µM"},
      {"measurement": "GI50", "setting": "[8]", "result": 3.18, "unit": "µM"},
      {"measurement": "TGI", "setting": "[8]", "result": "> 100", "unit": "µM"},
      {"measurement": "GI50", "setting": "[9]", "result": 11.7, "unit": "µM"},
      {"measurement": "TGI", "setting": "[9]", "result": 27.4, "unit": "µM"},
      {"measurement": "GI50", "setting": "[10]", "result": 15.3, "unit": "µM"},
      {"measurement": "TGI", "setting": "[10]", "result": 68.3, "unit": "µM"},
      {"measurement": "GI50", "setting": "[11]", "result": 2190, "unit": "nM"},
      {"measurement": "TGI", "setting": "[11]", "result": 9.27, "unit": "µM"},
      {"measurement": "GI50", "setting": "[12]", "result": 11.1, "unit": "µM"},
      {"measurement": "TGI", "setting": "[12]", "result": 25.9, "unit": "µM"},
      {"measurement": "GI50", "setting": "[13]", "result": 1660, "unit": "nM"},
      {"measurement": "TGI", "setting": "[13]", "result": 3.08, "unit": "µM"},
      {"measurement": "GI50", "setting": "[14]", "result": 1880, "unit": "nM"},
      {"measurement": "TGI", "setting": "[14]", "result": 3.77, "unit": "µM"},
      {"measurement": "GI50", "setting": "[15]", "result": 2110, "unit": "nM"},
      {"measurement": "TGI", "setting": "[15]", "result": 6.86, "unit": "µM"},
      {"measurement": "GI50", "setting": "[16]", "result": 1770, "unit": "nM"},
      {"measurement": "TGI", "setting": "[16]", "result": 3.56, "unit": "µM"},
      {"measurement": "GI50", "setting": "[17]", "result": 5.36, "unit": "µM"},
      {"measurement": "TGI", "setting": "[17]", "result": 58, "unit": "µM"},
      {"measurement": "GI50", "setting": "[18]", "result": 5.84, "unit": "µM"},
      {"measurement": "TGI", "setting": "[18]", "result": "> 100", "unit": "µM"},
      {"measurement": "GI50", "setting": "[19]", "result": 5.49, "unit": "µM"},
      {"measurement": "TGI", "setting": "[19]", "result": 47.9, "unit": "µM"},
      {"measurement": "GI50", "setting": "[20]", "result": 1680, "unit": "nM"},
      {"measurement": "TGI", "setting": "[20]", "result": 4.02, "unit": "µM"},
      {"measurement": "GI50", "setting": "[21]", "result": 3.77, "unit": "µM"},
      {"measurement": "TGI", "setting": "[21]", "result": 20.9, "unit": "µM"},
      {"measurement": "GI50", "setting": "[22]", "result": 3.17, "unit": "µM"},
      {"measurement": "TGI", "setting": "[22]", "result": 31.7, "unit": "µM"},
      {"measurement": "GI50", "setting": "[23]", "result": 15.3, "unit": "µM"},
      {"measurement": "TGI", "setting": "[23]", "result": "> 100", "unit": "µM"},
      {"measurement": "GI50", "setting": "[24]", "result": 15.7, "unit": "µM"},
      {"measurement": "TGI", "setting": "[24]", "result": 34.5, "unit": "µM"},
      {"measurement": "GI50", "setting": "[25]", "result": 1690, "unit": "nM"},
      {"measurement": "TGI", "setting": "[25]", "result": 3.15, "unit": "µM"},
      {"measurement": "GI50", "setting": "[26]", "result": 2160, "unit": "nM"},
      {"measurement": "TGI", "setting": "[26]", "result": 8.06, "unit": "µM"},
      {"measurement": "GI50", "setting": "[27]", "result": 2220, "unit": "nM"}
    ]}
  ]
}
